These results are taken from patent US20220169654A1, “New Organic Compounds” (Servier Pharmaceuticals LLC, priority 2020, published 2022).

Structures are written as SMILES. Where only a bound is given, the exact number is not on record here.

The subject of one assay is HCT116 MTAP−/−. Kind of assay: Inhibition of cellular proliferation, 4 days, Cell Titer Glo, HCT116 MTAP−/−. It counts as cell-based. As to conditions: Homo sapiens, HCT-116, 96 h, IC50 bin with Max Inh., read-out: 4 Day Relative Growth Inhibition (MTAP −/−). In outline: (§1)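 IC50 derived from blank-corrected ATP luminescence (Cell Titer Glo) expressed relative to within-plate 0.2% DMSO wells. Compound, as a 10-point 3-fold series, was added 24 h after seeding the MTAP+/+ or MTAP−/− HCT116 cells and incubated 4 days at 37° C./5% CO2.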

Another assay addresses T1, MAT2A homodimer (Homo sapiens, UniProt P31153).
T1 construct: inferred from Ni sepharose purification with imidazole elution; made in house; host or cells: Sf9 insect cells, baculovirus (Bac to Bac, pFASTBAC1)
Put plainly: MAT2A inhibition (biochemical, liberated phosphate, PiColorLock Gold). The note with it: recombinant MAT2A homodimer; IC50 bin with Max Inh.; read-out: Enzyme Inhibition Bin. Summed up:
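Enzyme at 4 μg/mL and compound equilibrated 60 min at 25 °C, then 60 min reaction after adding substrate mix (500 μM ATP, 400 μM methionine). Released phosphate quantified by colorimetric kit against a phosphate standard curve to give IC50. Secondary format used 1 μg/mL enzyme with 5 h incubation.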

Assay [1] concerns SAM in HCT116 human colon carcinoma cell line with MTAP gene deleted (MTAP −/−). Kind of assay: Cellular assay of target engagement (SAM), LC-MS/MS, 72 hrs. The format is cell-based. As to conditions: HCT-116, IC50 bin with Max Inh., read-out: Cell 72 h SAM Inhibition (MTAP −/−). In outline:
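SAM levels were quantified by LC-MS/MS (m/z 399.2→250.1, d3-SAM internal standard) from cold methanol/acetic acid extracts, yielding IC50. Compound was applied as a 10-point 3-fold series for 72 hrs to MTAP −/− HCT116 cells seeded 24 hours before.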

For the next assay, the system named is HCT116 MTAP+/+. Kind of assay: Inhibition of cellular proliferation, 4 days, Cell Titer Glo, HCT116 MTAP+/+. The format is cell-based. As to conditions: Homo sapiens, HCT-116, 96 h, IC50 bin with Max Inh., read-out: 4 Day Relative Growth Inhibition (MTAP +/+). Summed up:
as §1

T1 sequence (P31153 whole entry): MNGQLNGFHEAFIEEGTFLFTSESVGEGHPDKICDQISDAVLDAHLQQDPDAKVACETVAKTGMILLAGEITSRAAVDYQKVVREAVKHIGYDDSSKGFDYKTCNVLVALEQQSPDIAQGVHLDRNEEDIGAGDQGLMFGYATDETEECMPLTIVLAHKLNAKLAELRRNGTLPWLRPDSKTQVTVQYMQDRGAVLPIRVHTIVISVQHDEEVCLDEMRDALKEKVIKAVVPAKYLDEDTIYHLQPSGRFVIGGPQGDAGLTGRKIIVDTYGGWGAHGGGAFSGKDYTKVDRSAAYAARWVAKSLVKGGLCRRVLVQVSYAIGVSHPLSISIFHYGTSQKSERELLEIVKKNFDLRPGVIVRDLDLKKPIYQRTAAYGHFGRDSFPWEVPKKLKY

`Cn1cc2cc(-n3nc4c(C#N)cn(CC5CC5)c4c(-c4ccc5[nH]cc(C#N)c5c4)c3=O)ccc2n1` [Example 130, 4-(3-cyano-1H-indol-5-yl)-5-(cyclopropylmethyl)-2-(2-methyl-2H-indazol-5-yl)-3-oxo-3,5-dihydro-2H-pyrrolo[3,2-c]pyridazine-7-carbonitrile]: the IC50 in the assay with HCT116 MTAP−/− was 100 to 1000 nM; at MAT2A homodimer, less than 100 nM; in assay [1] it was less than 100 nM; with HCT116 MTAP+/+, more than 1000 nM.

For `O=c1c(-c2ccc(OC(F)F)cc2)c2c(ccn2CC2CC2)nn1-c1cn[nH]c1` [Example 231, 5-(cyclopropylmethyl)-4-(4-(difluoromethoxy)phenyl)-2-(1H-pyrazol-4-yl)-2,5-dihydro-3H-pyrrolo[3,2-c]pyridazin-3-one], the IC50 was 100 to 1000 nM in the assay on HCT116 MTAP−/−, less than 100 nM at MAT2A homodimer, 100 to 1000 nM in assay [1] and more than 1000 nM in the assay with HCT116 MTAP+/+.

Consider `[2H]C([2H])([2H])Oc1ccc(-n2nc3ccn(CC4CC4)c3c(-c3ccc(C)nc3)c2=O)cc1` [Example 134, 5-(cyclopropylmethyl)-2-(4-(methoxy-d3)phenyl)-4-(6-methylpyridin-3-yl)-2,5-dihydro-3H-pyrrolo[3,2-c]pyridazin-3-one], for which the IC50 with HCT116 MTAP−/− is 100 to 1000 nM; at MAT2A homodimer, less than 100 nM; in assay [1], less than 100 nM; with HCT116 MTAP+/+ it was more than 1000 nM.

Take `Cn1cc2cc(-n3nc4ccn(CC5CC5)c4c(-c4ccc(C(F)F)nc4)c3=O)ccc2n1` [Example 123, 5-(cyclopropylmethyl)-4-(6-(difluoromethyl)pyridin-3-yl)-2-(2-methyl-2H-indazol-5-yl)-2,5-dihydro-3H-pyrrolo[3,2-c]pyridazin-3-one]: the IC50 is less than 100 nM in the assay with HCT116 MTAP−/−, less than 100 nM on MAT2A homodimer, less than 100 nM in assay [1] and 100 to 1000 nM in the assay on HCT116 MTAP+/+.

On to `Cn1cc2cc(-n3nc4cnn(CC5CC5)c4c(-c4ccc(OC(F)F)cc4)c3=O)ccc2n1` [Example 218, 1-(cyclopropylmethyl)-7-(4-(difluoromethoxy)phenyl)-5-(2-methyl-2H-indazol-5-yl)-1,5-dihydro-6H-pyrazolo[4,3-c]pyridazin-6-one], for which the IC50 in the assay on HCT116 MTAP−/− is less than 100 nM; on MAT2A homodimer, less than 100 nM; in assay [1] it was less than 100 nM; in the assay on HCT116 MTAP+/+, 100 to 1000 nM.

In the case of `Cn1cc2cc(-n3nc4ccn(CC5CC5)c4c(-c4ccc(C5CC5)nc4)c3=O)ccc2n1` [Example 106, 5-(cyclopropylmethyl)-4-(6-cyclopropylpyridin-3-yl)-2-(2-methyl-2H-indazol-5-yl)-2,5-dihydro-3H-pyrrolo[3,2-c]pyridazin-3-one], the IC50 with HCT116 MTAP−/− was less than 100 nM; on MAT2A homodimer it was less than 100 nM; in assay [1] it was less than 100 nM; in the assay on HCT116 MTAP+/+, more than 1000 nM.

As to `Cc1nn(CC2CC2)c2c(-c3ccc(C4CC4)nc3)c(=O)n(-c3ccc4nn(C)cc4c3)nc12` [Example 211, 1-(cyclopropylmethyl)-7-(6-cyclopropylpyridin-3-yl)-3-methyl-5-(2-methyl-2H-indazol-5-yl)-1H,5H,6H-pyrazolo[4,3-c]pyridazin-6-one], the IC50 is less than 100 nM with HCT116 MTAP−/−, less than 100 nM at MAT2A homodimer, less than 100 nM in assay [1] and more than 1000 nM in the assay with HCT116 MTAP+/+.

With `[2H]C([2H])([2H])Oc1ccc(-c2c(=O)n(-c3ccc4nn(C)cc4c3)nc3ncn(CC4CC4)c23)cc1` [Example 194, 5-(cyclopropylmethyl)-4-(4-(methoxy-d3)phenyl)-2-(2-methyl-2H-indazol-5-yl)-2,5-dihydro-3H-imidazo[4,5-c]pyridazin-3-one], the IC50 in the assay on HCT116 MTAP−/− is less than 100 nM; at MAT2A homodimer, less than 100 nM; in assay [1] it was less than 100 nM; with HCT116 MTAP+/+ it was 100 to 1000 nM.

On to `Cn1cc2cc(-n3nc4ncn(CC5CC5)c4c(-c4ccc(OC(F)F)nc4)c3=O)ccc2n1` [Example 189, 5-(cyclopropylmethyl)-4-(6-(difluoromethoxy)pyridin-3-yl)-2-(2-methyl-2H-indazol-5-yl)-2,5-dihydro-3H-imidazo[4,5-c]pyridazin-3-one], for which the IC50 with HCT116 MTAP−/− was 100 to 1000 nM; on MAT2A homodimer it was less than 100 nM; in assay [1], 100 to 1000 nM; in the assay on HCT116 MTAP+/+ it was more than 1000 nM.

`Cc1ccc(-c2c(=O)n(-c3ccc4nn(C)cc4c3)nc3c(F)cn(CC4CC4)c23)cn1` [Example 237, 5-(cyclopropylmethyl)-7-fluoro-2-(2-methyl-2H-indazol-5-yl)-4-(6-methylpyridin-3-yl)-2,5-dihydro-3H-pyrrolo[3,2-c]pyridazin-3-one]: the IC50 in the assay with HCT116 MTAP−/− is less than 100 nM; on MAT2A homodimer, less than 100 nM; in assay [1], less than 100 nM; in the assay on HCT116 MTAP+/+, 100 to 1000 nM.

Consider `Cn1cc2cc(-n3nc4c(C#N)cn(CC5CC5)c4c(-c4ccc(C5CC5)nc4)c3=O)ccc2n1` [Example 107, 5-(cyclopropylmethyl)-4-(6-cyclopropylpyridin-3-yl)-2-(2-methyl-2H-indazol-5-yl)-3-oxo-3,5-dihydro-2H-pyrrolo[3,2-c]pyridazine-7-carbonitrile], for which the IC50 with HCT116 MTAP−/− was less than 100 nM; at MAT2A homodimer it was less than 100 nM; in assay [1], less than 100 nM; in the assay on HCT116 MTAP+/+, 100 to 1000 nM.

Consider `C[C@@H](O)c1cn(CC2CC2)c2c(-c3ccc(C4CC4)nc3)c(=O)n(-c3ccc4nn(C)cc4c3)nc12` [Example 249, (R)-5-(cyclopropylmethyl)-4-(6-cyclopropylpyridin-3-yl)-7-(1-hydroxyethyl)-2-(2-methyl-2H-indazol-5-yl)-2,5-dihydro-3H-pyrrolo[3,2-c]pyridazin-3-one], for which the IC50 in the assay on HCT116 MTAP−/− was less than 100 nM; at MAT2A homodimer, less than 100 nM; in assay [1], less than 100 nM; in the assay on HCT116 MTAP+/+, more than 1000 nM.

Consider `CC(=O)c1cn(CC2CC2)c2c(-c3ccc(C4CC4)nc3)c(=O)n(-c3ccc4nn(C)cc4c3)nc12` [Example 236, 7-acetyl-5-(cyclopropylmethyl)-4-(6-cyclopropylpyridin-3-yl)-2-(2-methyl-2H-indazol-5-yl)-2,5-dihydro-3H-pyrrolo[3,2-c]pyridazin-3-one], for which the IC50 was less than 100 nM with HCT116 MTAP−/−, less than 100 nM on MAT2A homodimer, less than 100 nM in assay [1] and more than 1000 nM in the assay with HCT116 MTAP+/+.

As for `CCCn1cc(C#N)c2nn(-c3ccc4nn(C)cc4c3)c(=O)c(-c3ccc(C)nc3)c21` [Example 145, 2-(2-methyl-2H-indazol-5-yl)-4-(6-methylpyridin-3-yl)-3-oxo-5-propyl-3,5-dihydro-2H-pyrrolo[3,2-c]pyridazine-7-carbonitrile], the IC50 is 100 to 1000 nM in the assay on HCT116 MTAP−/−, less than 100 nM at MAT2A homodimer, 100 to 1000 nM in assay [1] and 100 to 1000 nM in the assay with HCT116 MTAP+/+.

With `[2H]C([2H])([2H])n1cc2cc(-n3nc4c(C(=O)NC)cn(CC5CC5)c4c(-c4ccc(C5CC5)nc4)c3=O)ccc2n1` [Example 172, 5-(cyclopropylmethyl)-4-(6-cyclopropylpyridin-3-yl)-N-methyl-2-(2-(methyl-d3)-2H-indazol-5-yl)-3-oxo-3,5-dihydro-2H-pyrrolo[3,2-c]pyridazine-7-carboxamide], the IC50 was less than 100 nM in the assay with HCT116 MTAP−/−, less than 100 nM at MAT2A homodimer, less than 100 nM in assay [1] and more than 1000 nM with HCT116 MTAP+/+.
